Experimental data published in article PMC10913730, “Antimicrobial activity of a natural compound and analogs against multi-drug-resistant Gram-positive pathogens” (Microbiology Spectrum, 2024).
Converted amounts (≈) assume the structure as drawn. Where two headings read alike, the source gives them in different places. Each block holds one compound with its values, some of them ahead of it.

Tests used:
MRSA isolates = experiment: MIC/MBC, CLSI broth microdilution, MRSA isolates; assay type: cell-based, Staphylococcus aureus
MRSA isolate TCH 1516 [1] = experiment: Resistance acquisition during serial passage; assay type: cell-based, Staphylococcus aureus; conditions: serial passage
Description: MRSA isolate TCH 1516 was grown to the stationary phase (OD650 = 1.0) in 10 mL of MH broth. […] The second highest drug concentration resulting in bacterial growth (OD650 >1.0) was used as the inoculum after a 1:1,000 dilution for subsequent steps, every 24 hours, for up to 21 days.

[2] = test system: MRSA isolate SAD05 biofilms; assay type: cell-based, Staphylococcus aureus; conditions: 72-hour biofilms of SAD05, MBEC assay
[3] = test system: MRSA isolates SA LL 06 and TCH 1516; experiment: Kill kinetics against stationary-phase MRSA; assay type: cell-based, Staphylococcus aureus; conditions: shaking, 37°C
Description: MRSA isolates, TCH 1516 and SA LL 06, were grown to the stationary phase, and the rate of bacterial killing was determined. Frozen bacterial stocks were streaked onto TSA plates and grown overnight. A single colony was selected and incubated overnight in LB broth at 37°C with constant orbital shaking at 200 RPM. Next, bacterial suspension was washed twice with 150 mM sodium chloride and resuspended in MH broth at a concentration of 1.2E9 CFU/mL. […] Glass tubes containing 5 mL of bacteria and drug solutions were grown in a shaking incubator at 37°C. At 0, 4, 8, and 24 hours, bacterial suspensions were collected, serially diluted, and plated onto a blood agar plate. Bacteria were allowed to grow for 24 hours and were enumerated to yield colony-forming units per milliliter.

MRSA isolate TCH 1516 [4] = experiment: Single-step resistance development; assay type: cell-based, Staphylococcus aureus
Description: For the single-step study, bacteria were grown to the stationary phase as described above. Bacteria at a concentration of 1E9 CFU were then plated onto C59 and vancomycin-loaded plates containing 1×, 2×, 4×, and 8× MIC concentrations of the therapeutic agents with 1% DMSO. Bacteria were incubated at 37°C for 48 hours, and colony counts were enumerated to calculate the frequency of resistance development, as described in the literature ([45], [46]).

[5] = test system: Staphylococcus epidermidis isolates; experiment: microbe, parasite or virus in culture; assay type: cell-based
[6] = Staphylococcus aureus, 39 evaluated MRSA isolates, CLSI broth microdilution, read-out: MBC90
[7] = Staphylococcus aureus, 39 evaluated MRSA isolates, CLSI broth microdilution, read-out: MIC90
[8] = 21 Staphylococcus epidermidis isolates
[9] = Staphylococcus aureus, MRSA, pH 5.5, MRSA 0606, pH 5.5
[10] = Staphylococcus aureus, MRSA, pH 5.5, MRSA 0608, pH 5.5
[11] = Staphylococcus aureus, MRSA, pH 5.5, MRSA 0634, pH 5.5
[12] = Staphylococcus aureus, MRSA, pH 5.5, MRSA 0641, pH 5.5
[13] = Staphylococcus aureus, MRSA, pH 5.5, MRSA 0646, pH 5.5
[14] = Staphylococcus aureus, MRSA, pH 5.5, TCH 1516, pH 5.5
[15] = Staphylococcus aureus, MRSA, pH 6.5, MRSA 0606, pH 6.5
[16] = Staphylococcus aureus, MRSA, pH 6.5, MRSA 0608, pH 6.5
[17] = Staphylococcus aureus, MRSA, pH 6.5, MRSA 0634, pH 6.5
[18] = Staphylococcus aureus, MRSA, pH 6.5, MRSA 0641, pH 6.5
[19] = Staphylococcus aureus, MRSA, pH 6.5, MRSA 0646, pH 6.5
[20] = Staphylococcus aureus, MRSA, pH 6.5, TCH 1516, pH 6.5

MIC90 (MRSA isolates; [7]): 2 mg/L (≈ 1.23 µM)
Compound: CCCCCCCCCC(=O)N[C@@H](Cc1c[nH]c2ccccc12)C(=O)N[C@H](CC(N)=O)C(=O)N[C@@H](CC(=O)O)C(=O)N[C@@H]1C(=O)NCC(=O)N[C@@H](CCCN)C(=O)N[C@@H](CC(=O)O)C(=O)N[C@H](C)C(=O)N[C@@H](CC(=O)O)C(=O)NCC(=O)N[C@H](CO)C(=O)N[C@@H]([C@H](C)CC(=O)O)C(=O)N[C@@H](CC(=O)c2ccccc2N)C(=O)O[C@@H]1C [Daptomycin, daptomycin, reference compound]
MBC (MRSA isolates; [6]): 2 mg/L (≈ 1.23 µM)

Compound: CC(=O)NC[C@H]1CN(c2ccc(N3CCOCC3)c(F)c2)C(=O)O1 [Linezolid, linezolid, reference compound]
increase in MIC (MRSA isolate TCH 1516 [1]; after 21 days): 16 fold | MBC (MRSA isolates; [6]): > 32 mg/L | MIC90 (MRSA isolates; [7]): 4 mg/L (≈ 11.9 µM)

Compound: CN[C@H](CC(C)C)C(=O)N[C@H]1C(=O)N[C@@H](CC(N)=O)C(=O)N[C@H]2C(=O)N[C@H]3C(=O)N[C@H](C(=O)N[C@H](C(=O)O)c4cc(O)cc(O)c4-c4cc3ccc4O)[C@H](O)c3ccc(c(Cl)c3)Oc3cc2cc(c3O[C@@H]2O[C@H](CO)[C@@H](O)[C@H](O)[C@H]2O[C@H]2C[C@](C)(N)[C@H](O)[C@H](C)O2)Oc2ccc(cc2Cl)[C@H]1O [Vancomycin, vancomycin, reference compound]
concentration that completely eradicated biofilms [2]: did not demonstrate activity against MRSA biofilms | bacterial killing after 24 hours ([3]; stationary-phase SA LL 06, C59 at 1× and 2× MIC): complete lack of bacterial inhibition | bacterial killing after 24 hours ([3]; stationary-phase TCH 1516): significantly higher bacterial burden | frequency of resistance acquisition (MRSA isolate TCH 1516 [4]; TCH 1516, 2× MIC): 1.83 × 10^−8 ± 7.10 × 10^−9 | frequency of resistance acquisition (MRSA isolate TCH 1516 [4]; TCH 1516, 4× MIC): 1.56 × 10^−9 ± 7.12 × 10^−10 | frequency of resistance acquisition (MRSA isolate TCH 1516 [4]; TCH 1516, 8× MIC): 5.77 × 10^−10 ± 2.77 × 10^−10 | growth on drug-loaded plates (MRSA isolate TCH 1516 [4]; TCH 1516 stationary phase, C59 as low as 2× MIC, vancomycin up to 8× MIC): bacterial growth was observed | MBC range [5, 8]: 2 to 16 mg/L | MIC range [5, 8]: 1 to 8 mg/L | MIC90 ([5]; Staphylococcus epidermidis): 4 mg/L (≈ 2.76 µM) | MBC ([5]; Staphylococcus epidermidis, read-out: MBC90): 8 mg/L (≈ 5.52 µM) | initial increase in MIC (MRSA isolate TCH 1516 [1]; within 7 days, stable thereafter): sixfold | MBC (MRSA isolates; MRSA 0606, pH 7.4): 2 mg/L (≈ 1.38 µM) | MIC (MRSA isolates; MRSA 0606, pH 7.4): 2 mg/L (≈ 1.38 µM) | MBC (MRSA isolates; MRSA 0608, pH 7.4): 6 mg/L (≈ 4.14 µM) | MIC (MRSA isolates; MRSA 0608, pH 7.4): 2 mg/L (≈ 1.38 µM) | MBC (MRSA isolates; MRSA 0634, pH 7.4): 6 mg/L (≈ 4.14 µM) | MIC (MRSA isolates; MRSA 0634, pH 7.4): 2 mg/L (≈ 1.38 µM) | MBC (MRSA isolates; MRSA 0641, pH 7.4): 4 mg/L (≈ 2.76 µM) | MIC (MRSA isolates; MRSA 0641, pH 7.4): 1 mg/L (≈ 0.69 µM) | MBC (MRSA isolates; MRSA 0646, pH 7.4): 6 mg/L (≈ 4.14 µM) | MIC (MRSA isolates; MRSA 0646, pH 7.4): 2 mg/L (≈ 1.38 µM) | MIC90 (MRSA isolates; Staphylococcus aureus, MRSA, 39 evaluated MRSA isolates, CLSI broth microdilution): 2 mg/L (≈ 1.38 µM) | MIC (MRSA isolates; Staphylococcus aureus, MRSA, SA LL 06, as given for the kill kinetic assay): 1 mg/L (≈ 0.69 µM) | MIC (MRSA isolates; Staphylococcus aureus, MRSA, TCH 1516, as given for the kill kinetic assay): 4 mg/L (≈ 2.76 µM) | MBC (MRSA isolates; [9]): 2 mg/L (≈ 1.38 µM) | MIC (MRSA isolates; [9]): 2 mg/L (≈ 1.38 µM) | MBC (MRSA isolates; [10]): 4 mg/L (≈ 2.76 µM) | MIC (MRSA isolates; [10]): 4 mg/L (≈ 2.76 µM) | MBC (MRSA isolates; [11]): 8 mg/L (≈ 5.52 µM) | MIC (MRSA isolates; [11]): 2 mg/L (≈ 1.38 µM) | MBC (MRSA isolates; [12]): 2 mg/L (≈ 1.38 µM) | MIC (MRSA isolates; [12]): 2 mg/L (≈ 1.38 µM) | MBC (MRSA isolates; [13]): 8 mg/L (≈ 5.52 µM) | MIC (MRSA isolates; [13]): 2 mg/L (≈ 1.38 µM) | MBC (MRSA isolates; [14]): 4 mg/L (≈ 2.76 µM) | MIC (MRSA isolates; [14]): 2 mg/L (≈ 1.38 µM) | MBC (MRSA isolates; Staphylococcus aureus, MRSA, pH 5.5, read-out: Average MBC, average of six MRSA isolates, pH 5.5): 4.7 mg/L (≈ 3.24 µM) | MIC (MRSA isolates; Staphylococcus aureus, MRSA, pH 5.5, read-out: Average MIC, average of six MRSA isolates, pH 5.5): 2.3 mg/L (≈ 1.59 µM) | MBC (MRSA isolates; [15]): 4 mg/L (≈ 2.76 µM) | MIC (MRSA isolates; [15]): 1 mg/L (≈ 0.69 µM) | MBC (MRSA isolates; [16]): 2 mg/L (≈ 1.38 µM) | MIC (MRSA isolates; [16]): 2 mg/L (≈ 1.38 µM) | MBC (MRSA isolates; [17]): 4 mg/L (≈ 2.76 µM) | MIC (MRSA isolates; [17]): 2 mg/L (≈ 1.38 µM) | MBC (MRSA isolates; [18]): 2 mg/L (≈ 1.38 µM) | MIC (MRSA isolates; [18]): 1 mg/L (≈ 0.69 µM) | MBC (MRSA isolates; [19]): 2 mg/L (≈ 1.38 µM) | MIC (MRSA isolates; [19]): 2 mg/L (≈ 1.38 µM) | MBC (MRSA isolates; [20]): 2 mg/L (≈ 1.38 µM) | MIC (MRSA isolates; [20]): 1 mg/L (≈ 0.69 µM) | MBC (MRSA isolates; Staphylococcus aureus, MRSA, pH 6.5, read-out: Average MBC, average of six MRSA isolates, pH 6.5): 2.3 mg/L (≈ 1.59 µM) | MIC (MRSA isolates; Staphylococcus aureus, MRSA, pH 6.5, read-out: Average MIC, average of six MRSA isolates, pH 6.5): 1.5 mg/L (≈ 1.04 µM) | MBC (MRSA isolates; Staphylococcus aureus, MRSA, pH 7.4, read-out: Average MBC, average of six MRSA isolates, pH 7.4): 4.2 mg/L (≈ 2.9 µM) | MIC (MRSA isolates; Staphylococcus aureus, MRSA, pH 7.4, read-out: Average MIC, average of six MRSA isolates, pH 7.4): 1.7 mg/L (≈ 1.17 µM) | MBC (MRSA isolates; Staphylococcus aureus, MRSA, read-out: MBC90, 39 evaluated MRSA isolates, CLSI broth microdilution): 16 mg/L (≈ 11 µM) | MBC (MRSA isolates; TCH 1516, pH 7.4): 1 mg/L (≈ 0.69 µM) | MIC (MRSA isolates; TCH 1516, pH 7.4): 1 mg/L (≈ 0.69 µM) | change of MIC and MBC with the reduction in pH (MRSA isolates; six MRSA isolates, pH lowered to 5.5): increased
